Data reported in US20250066341A1 (CHIESI FARMACEUTICI S.P.A., priority 2021, published 2025).

Each compound was assayed against T1, human recombinant LPA1 expressed in CHO cells (Homo sapiens, UniProt Q92633) (assay: FLIPR calcium mobilization assay, LPA1 antagonism in CHO-hLPA1 cells). Details: inhibition of LPA EC80 Ca2+ response, 30 min pre-incubation, expressed as range of activity.
T1 construct: expressed in transfected cells; host or cells: CHO cells (CHO-hLPA1 cell line)
T1 sequence (Q92633 whole entry): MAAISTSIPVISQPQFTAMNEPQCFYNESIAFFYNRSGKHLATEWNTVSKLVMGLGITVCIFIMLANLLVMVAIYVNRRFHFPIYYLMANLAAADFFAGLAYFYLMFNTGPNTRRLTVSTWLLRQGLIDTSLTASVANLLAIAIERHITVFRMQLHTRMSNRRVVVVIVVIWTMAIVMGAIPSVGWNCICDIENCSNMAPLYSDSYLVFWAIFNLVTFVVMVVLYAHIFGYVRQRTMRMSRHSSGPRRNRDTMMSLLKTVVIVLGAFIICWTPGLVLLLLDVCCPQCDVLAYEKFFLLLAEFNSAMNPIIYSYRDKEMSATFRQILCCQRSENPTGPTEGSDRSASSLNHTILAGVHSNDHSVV
Format: cell-based
Protocol: The effectiveness of compounds of the present invention as LPA1 antagonist can be determined at the human recombinant LPA1 expressed in CHO cells, using a FLIPR assay in 384 well format.
CHO-hLPA1 cell lines are cultured in a humidified incubator at 5% C02 in DMEM/F-12 (1:1) MIXTURE with 2 mM Glutamax, supplemented with 10% of Foetal Bovine Serum, 1 mM Sodium Pyruvate, 11 mM Hepes and 1× Penicillin/Streptomycin. […] Serial dilutions (1:3 or 1:4, 11 points CRC) of compounds are performed in 100% DMSO at 200× the final concentration. […] The final concentration of DMSO in the assay will be 0.5% in each well. Medium is removed by aspiration and cells are then incubated with 30 μl of a loading solution containing 5 μM of the cytoplasmic Ca2+ indicator Cal-520 AM in Assay Buffer containing 2.5 mM probenecid for 30 min at 37° C. incubator (cell loading). The loaded cell plates are transferred into the FLIPR instrument and calcium responses are monitored during the on-line addition protocols. For testing of compounds, after the cell loading, 10 μl/well of 4× antagonists' solution was added onto the cells. After 30 min pre-incubation (at 37° C.), 10 μl/well of 5× concentrated LPA EC80 was added and Ca2+ mobilization responses was followed during the on-line addition protocol. Intracellular peak fluorescence values subtracted by baseline fluorescence are exported and analysed to determine IC50 values, respectively. The calcium response is expressed as percentage of the maximal inhibition of the EC80 agonist response.
The raw data (peak height expressed as relative fluorescence units) are normalized and transformed into “percent of inhibition”. Curve fitting and pIC50 (−LogIC50) estimations are carried out using a four-parameter logistic model using XLfit Software.
In the case of `Cc1noc(-c2ccc(NC(=O)C3CCCCC3C(=O)O)cc2)c1Nc1cncc(OC(C)C)n1` (racemic) [Compound 16, 2-((4-(4-((6-isopropoxypyrazin-2-yl)amino)-3-methylisoxazol-5-yl)phenyl)carbamoyl)cyclohexane-1-carboxylic acid], the IC50 is reported as < 50 nM.
With `Cc1nc(-c2onc(C)c2NS(=O)(=O)CC(C)c2ccccc2)ccc1NC(=O)[C@H]1CCCC[C@@H]1C(=O)O` (mixture of isomers) [Compound 29, rac-(1S,2S)-2-((2-methyl-6-(3-methyl-4-((2-phenylpropyl)sulfonamido)isoxazol-5-yl)pyridin-3-yl)carbamoyl)cyclohexane-1-carboxylic acid] the IC50 was < 50 nM.
Work on `CC(C)Oc1cncc(Nc2c(-c3ccc(NC(=O)C4CCCCC4C(=O)O)cc3)nnn2C)n1` (racemic) [Compound 43, 2-((4-(5-((6-isopropoxypyrazin-2-yl)amino)-1-methyl-1H-1,2,3-triazol-4-yl)phenyl)carbamoyl)cyclohexane-1-carboxylic acid] yielded an IC50 of 50 to 250 nM.
With `Cc1nc(-c2onc(C)c2NS(=O)(=O)CC(C)c2ccccc2)ccc1NC(=O)[C@H]1CCCC[C@@H]1C(=O)O` (single isomer, unassigned) [Compound 30] the IC50 was < 50 nM.
`Cc1noc(-c2ccc(OCC3CCCCC3C(=O)O)cn2)c1NC(=O)O[C@H](C)c1ccccc1Cl` (single isomer, unassigned) [Compound 81] was tested, and the IC50 was < 50 nM.
`Cc1nc(-c2onc(C)c2Nc2cncc(OC3CC(F)(F)C3)n2)ccc1NC(=O)[C@H]1CCCC[C@@H]1C(=O)O` [Compound 3, (1S,2S)-2-((6-(4-((6-(3,3-difluorocyclobutoxy)pyrazin-2-yl)amino)-3-methylisoxazol-5-yl)-2-methylpyridin-3-yl)carbamoyl)cyclohexane-1-carboxylic acid] was tested, and the IC50 was 50 to 250 nM.
`Cc1nc(-c2onc(C)c2Nc2cncc(C(F)(F)F)n2)ccc1NC(=O)[C@H]1CCCC[C@@H]1C(=O)O` [Compound 4, (1S,2S)-2-((2-methyl-6-(3-methyl-4-((6-(trifluoromethyl)pyrazin-2-yl)amino)isoxazol-5-yl)pyridin-3-yl)carbamoyl)cyclohexane-1-carboxylic acid] gave an IC50 of 50 to 250 nM.
Compound `CCCCNc1cncc(Nc2c(C)noc2-c2ccc(NC(=O)[C@H]3CCCC[C@@H]3C(=O)O)c(C)n2)n1` [Compound 5, (1S,2S)-2-((6-(4-((6-(butylamino)pyrazin-2-yl)amino)-3-methylisoxazol-5-yl)-2-methylpyridin-3-yl)carbamoyl)cyclohexane-1-carboxylic acid] has an IC50 of 250 to 600 nM.
`Cc1nc(-c2onc(C)c2Nc2cncc(-c3ccccc3)n2)ccc1NC(=O)[C@H]1CCCC[C@@H]1C(=O)O` [Compound 6, (1S,2S)-2-((2-methyl-6-(3-methyl-4-((6-phenylpyrazin-2-yl)amino)isoxazol-5-yl)pyridin-3-yl)carbamoyl)cyclohexane-1-carboxylic acid] was tested, and the IC50 was < 50 nM.
In the case of `Cc1nc(-c2onc(C)c2Nc2cncc(-c3cccnc3)n2)ccc1NC(=O)[C@H]1CCCC[C@@H]1C(=O)O` [Compound 7, (1S,2S)-2-((2-methyl-6-(3-methyl-4-((6-(pyridin-3-yl)pyrazin-2-yl)amino)isoxazol-5-yl)pyridin-3-yl)carbamoyl)cyclohexane-1-carboxylic acid], the IC50 is reported as 50 to 250 nM.
Compound `Cc1nc(-c2onc(C)c2Nc2cncc(-c3ccncc3)n2)ccc1NC(=O)[C@H]1CCCC[C@@H]1C(=O)O` [Compound 8, (1S,2S)-2-((2-methyl-6-(3-methyl-4-((6-(pyridin-4-yl)pyrazin-2-yl)amino)isoxazol-5-yl)pyridin-3-yl)carbamoyl)cyclohexane-1-carboxylic acid] has an IC50 of 50 to 250 nM.
In the case of `Cc1nc(-c2onc(C)c2Nc2cncc(C3=CCCCC3)n2)ccc1NC(=O)[C@H]1CCCC[C@@H]1C(=O)O` [Compound 10, (1S,2S)-2-((6-(4-((6-(cyclohex-1-en-1-yl)pyrazin-2-yl)amino)-3-methylisoxazol-5-yl)-2-methylpyridin-3-yl)carbamoyl)cyclohexane-1-carboxylic acid], the IC50 is reported as < 50 nM.
With `Cc1nc(-c2onc(C)c2Nc2cncc(C3CCCC3)n2)ccc1NC(=O)[C@H]1CCCC[C@@H]1C(=O)O` [Compound 11, (1S,2S)-2-((6-(4-((6-cyclopentylpyrazin-2-yl)amino)-3-methylisoxazol-5-yl)-2-methylpyridin-3-yl)carbamoyl)cyclohexane-1-carboxylic acid] the IC50 was < 50 nM.
`Cc1nc(-c2onc(C)c2Nc2cncc(CC(C)C)n2)ccc1NC(=O)[C@H]1CCCC[C@@H]1C(=O)O` [Compound 12, (1S,2S)-2-((6-(4-((6-isobutylpyrazin-2-yl)amino)-3-methylisoxazol-5-yl)-2-methylpyridin-3-yl)carbamoyl)cyclohexane-1-carboxylic acid] was tested, and the IC50 was 50 to 250 nM.
With `Cc1nc(-c2onc(C)c2Nc2cncc(C(C)C)n2)ccc1NC(=O)[C@H]1CCCC[C@@H]1C(=O)O` [Compound 13, (1S,2S)-2-((6-(4-((6-isopropylpyrazin-2-yl)amino)-3-methylisoxazol-5-yl)-2-methylpyridin-3-yl)carbamoyl)cyclohexane-1-carboxylic acid] the IC50 was 50 to 250 nM.
In the case of `Cc1nc(-c2onc(C)c2Nc2cncc(-c3ccccn3)n2)ccc1NC(=O)[C@H]1CCCC[C@@H]1C(=O)O` [Compound 14, (1S,2S)-2-((2-methyl-6-(3-methyl-4-((6-(pyridin-2-yl)pyrazin-2-yl)amino)isoxazol-5-yl)pyridin-3-yl)carbamoyl)cyclohexane-1-carboxylic acid], the IC50 is reported as 50 to 250 nM.
With `Cc1nc(-c2onc(C)c2Nc2cncc(NC3CCCC3)n2)ccc1NC(=O)[C@H]1CCCC[C@@H]1C(=O)O` [Compound 15, (1S,2S)-2-((6-(4-((6-(cyclopentylamino)pyrazin-2-yl)amino)-3-methylisoxazol-5-yl)-2-methylpyridin-3-yl)carbamoyl)cyclohexane-1-carboxylic acid] the IC50 was 50 to 250 nM.
For `Cc1nc(-c2cnn(C)c2CNc2nccc(OC(C)C)n2)ccc1NC(=O)[C@H]1CCCC[C@@H]1C(=O)O` [Compound 17, (1S,2S)-2-((6-(5-(((4-isopropoxypyrimidin-2-yl)amino)methyl)-1-methyl-1H-pyrazol-4-yl)-2-methylpyridin-3-yl)carbamoyl)cyclohexane-1-carboxylic acid], the IC50 was 50 to 250 nM.
With `Cc1nc(-c2cnn(C)c2CNc2nccc(C3CCCCC3)n2)ccc1NC(=O)[C@H]1CCCC[C@@H]1C(=O)O` [Compound 18] the IC50 was < 50 nM.
In the case of `Cc1nc(-c2cnn(C)c2CNc2nccc(-c3ccccc3)n2)ccc1NC(=O)[C@H]1CCCC[C@@H]1C(=O)O` [Compound 19, (1S,2S)-2-((2-methyl-6-(1-methyl-5-(((4-phenylpyrimidin-2-yl)amino)methyl)-1H-pyrazol-4-yl)pyridin-3-yl)carbamoyl)cyclohexane-1-carboxylic acid], the IC50 is reported as < 50 nM.
For `CC(C)Oc1cncc(Nc2c(-c3ccc(NC(=O)[C@H]4CCCC[C@@H]4C(=O)O)cc3)cnn2C)n1` [Compound 20, (1S,2S)-2-((4-(5-((6-isopropoxypyrazin-2-yl)amino)-1-methyl-1H-pyrazol-4-yl)phenyl)carbamoyl)cyclohexane-1-carboxylic acid], the IC50 was 50 to 250 nM.
Work on `Cc1nc(-c2cnn(C)c2COC(=O)N(C)CCC(C)C)ccc1NC(=O)[C@H]1CCCC[C@@H]1C(=O)O` [Compound 21, (1S,2S)-2-((6-(5-(((isopentyl(methyl)carbamoyl)oxy)methyl)-1-methyl-1H-pyrazol-4-yl)-2-methylpyridin-3-yl)carbamoyl)cyclohexane-1-carboxylic acid] yielded an IC50 of 250 to 600 nM.
